# Experiments:
# CXCR3 [1] = biological target: T1, CXCR3 (Homo sapiens, UniProt P49682); experiment: Chemotaxis assay IP10, L1.2 recombinant cells expressing hCXCR3; assay type: cell-based; details: L1.2 hCXCR3 cells, IP10 around 0.3 nM, 4 hours
# T1 sequence (P49682 1-368): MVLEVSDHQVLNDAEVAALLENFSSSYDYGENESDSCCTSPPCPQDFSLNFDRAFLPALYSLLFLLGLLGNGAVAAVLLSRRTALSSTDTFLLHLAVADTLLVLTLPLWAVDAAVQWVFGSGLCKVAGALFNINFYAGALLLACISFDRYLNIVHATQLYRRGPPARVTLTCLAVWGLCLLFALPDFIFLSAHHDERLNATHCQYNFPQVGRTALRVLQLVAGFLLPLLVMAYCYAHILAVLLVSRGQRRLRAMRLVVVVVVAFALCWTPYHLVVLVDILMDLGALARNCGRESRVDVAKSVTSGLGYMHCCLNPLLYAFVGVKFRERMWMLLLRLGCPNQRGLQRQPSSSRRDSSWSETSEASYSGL
# Procedure: Human CXCR3 cDNA was amplified by PCR from a human cells cDNA library (Clontech) and subcloned into pcDNA3.1 (Invitrogen). Murine pre-B L1.2 cells were transfected with hCXCR3-pcDNA3.1 and were grown at 37° C., 5% CO2 in RPMI 1640 medium (Invitrogen, USA) supplemented with 5% heat inactivated fetal calf serum (Cancerra, Australia), 2 mM glutamine (Invitrogen), 50 units ml−1 penicillin, 50 μml−1 streptomycin. Stable transfectant clonal populations were selected using 800 μg/ml geneticin.
# L1.2 recombinant cells expressing the receptor hCXCR3 were maintained in culture in RPMI 1640 (invitrogen), 5% Foetal Bovine Serum (invitrogen), 2 mM glutamine(invitrogen), 50 u/ml penicillin/streptomycin (invitrogen), at 37° C.-5% CO2—in an H2O saturated incubator. In order to stimulate the expression of the receptor, cells were incubated overnight with 5 mM butyric acid (Sigma)
# This mix of cells/compounds was then incubated at 37° C.-5% CO2—in an H2O saturated incubator during 30 minutes. Cells were then dispensed as a drop on each corresponding wells of the chemotaxis system. Cell migration was then induced at 37° C.-5% CO2—in an H2O incubator during 4 hours. Filters were then removed and cells that had migrated were transferred in a black plate (Costar). The plates were stored overnight at −80° C. Cell migration ratio was calculated using the cyquant dye (Molecular Probes-C7026).
# CXCR3 [2] = biological target: T1, CXCR3; experiment: Radioligand binding, scintillation proximity assay ([125I]IP-10 or [125I]I-TAC competition) on CHO-CXCR3 cell membranes; set-up: host or cells: CHO cells stably expressing hCXCR3; details: [125I]IP-10, human CXCR3 cell membranes, Cheng-Prusoff; read-out: Binding Ki (μM) IP10
# Procedure: Human chinese hamster ovary (CHO) cell line stably expressing hCXCR3 was purchased from Euroscreen (Belgium) and culture in HAM's F12 (Invitrogen) containing 10% heat inactivated fetal calf serum (Cancerra, Australia), 50 units ml−1 penicillin, 50 μml−1 streptomycin, (Invitrogen, USA) and 400 μg/ml geneticin (G418) (Calbiochem, San Diego), according to the manufacturer.
# CHO cells expressing the human CXCR3 were disrupted by nitrogen cavitation (Parr Instruments, USA) at 4° C., 800 p.s.i. for 30 min in 50 mM Tris-HCl pH 7.5, 2 mM EDTA, 250 mM Sucrose and protease inhibitors (Roche). Cell membranes were prepared by differential centrifugation (200×g for 10 min, then 100000×g for 60 min). Membranes pellets were re-suspended in 50 mM Tris-HCL pH 7.4, 1 mM EDTA, 10 mM MgCl2, 250 mM sucrose and inhibitor of proteases. Purified CHO-CXCR3 cell membranes were frozen in liquid nitrogen and stored at −80° C.
# A scintillation proximity assay was used for radioligand competition and saturation binding assays. For each assay point, 1 to 5 μg of human CXCR3 cell membranes were incubated in a final volume of 100 μl in 96 well plates (Corning, USA) for 120 minutes with shaking at room temperature in presence of 100 μg of wheat germ agglutinin-coated scintillation proximity assay beads (WGA-SPA, RPNQ0001, GE Healthcare), 0.05-0.1 nM [125I]I-TAC (Perkin Elmer, 1366Cie/mmol) or 0.1 nM [125I]IP-10 (Perkin Elmer, 2200 Cie/mmol) in binding buffer (50 mM HEPES/KOH pH 7.4, 10 mM MgCl2, 1 mM CaCl2, 0.1% bovine serum albumin (BSA), 100 mM NaCl with protease inhibitor cocktail tablets (Roche). Assay was performed in presence of 1% dimethylsulphoxide (Me2SO). Binding activity was determined using a 1450 Micro-beta scintillation counter (Wallac, UK). Ki values were calculated using the Cheng-Prusoff equation (Cheng and Prusoff, 1973) and represent the average of at least three independent dose response experiments.
# CXCR3 [3] = biological target: T1, CXCR3; experiment: CXCR3 Ca2+ mobilization (FLIPR), stable hCXCR3-CHO cell line, I-TAC stimulated; assay type: cell-based; set-up: host or cells: CHO cells stably expressing hCXCR3; details: hCXCR3-CHO cells, I-TAC 100 nM stimulated Ca2+ response; read-out: Ca-ITAC
# How it was run: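 Ca2+ mobilization triggered by I-TAC (100 nM) measured by FLIPR in a stable hCXCR3-CHO line. Dye-loaded (60 min) cells preincubated with compounds 20 minutes at room temperature; antagonism given relative to the compound-free I-TAC signal set at 100%.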
# CXCR3 [4] = biological target: T1, CXCR3; experiment: Chemotaxis assay ITAC (CXCL11), L1.2-CXCR3 cells; assay type: cell-based; set-up: expressed in transfected cells; details: 1 nM CXCL11 (I-TAC), 4 hours
# How it was run: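 Murine pre-B L1.2 cells stably expressing human CXCR3, pretreated 24 h with 5 mM butyric acid, preincubated with compound 30 min at 37 °C in 1% DMSO. Migration toward 1 nM CXCL11 (also with compound) through 8 μm filters for 4 h at 37 °C; migrated cells counted with CyQuant GR dye.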
IC50 (CXCR3 [1]) [µM],Ki (CXCR3 [2]) [µM],IC50 (CXCR3 [3]) [nM],IC50 (CXCR3 [4]) [nM],Compound
0.496,0.092,–,–,"O=S(=O)(c1ccc(Cl)cc1)N(Cc1ccc(-c2nnn[nH]2)cc1)Cc1ccccn1 [Example 16, 4-chloro-N-(pyridin-2-ylmethyl)-N-[4-(1H-tetrazol-5-yl)benzyl]benzenesulfonamide]"
0.404,0.1,–,–,"O=C(NS(=O)(=O)Cc1ccccc1)c1ccc(CN(Cc2ccccn2)S(=O)(=O)c2ccc(Cl)cc2)cc1 [Example 11, N-(benzylsulfonyl)-4-{[[(4-chlorophenyl)sulfonyl](pyridin-2-ylmethyl)amino]methyl}benzamide]"
–,0.123,–,–,"O=C(NCc1cccc(Cl)c1)c1ccc(CN(Cc2ccccn2)S(=O)(=O)c2ccc(Cl)cc2)cc1 [Example 6, N-(3-chlorobenzyl)-4-{[[(4-chlorophenyl)sulfonyl](pyridin-2-ylmethyl)amino]methyl}benzamide]"
–,0.161,520,1040,"CCOc1ccc(S(=O)(=O)N(Cc2ccc(-c3nnn[nH]3)cc2)Cc2ccccn2)cc1 [Example 42, 4-Ethoxy-N-(pyridin-2-ylmethyl)-N-[4-(2H-tetrazol-5-yl)benzyl]benzenesulfonamide]"
0.138,0.066,–,–,"O=C(NS(=O)(=O)c1cccc(Cl)c1)c1ccc(CN(Cc2ccccn2)S(=O)(=O)c2ccc(Cl)cc2)cc1 [Example 13, N-[(3-chlorophenyl)sulfonyl]-4{[[(4-chlorophenyl)sulfonyl](pyridin-2-ylmethyl)amino]methyl}benzamide]"
0.238,0.155,–,–,"O=C(NC1(c2ccccc2)CC1)c1ccc(CN(Cc2ccccc2)S(=O)(=O)c2ccc(Cl)cc2)cc1 [Example 10, 4-({benzyl[(4-chlorophenyl)sulfonyl]amino}methyl)-N-(1-phenylcyclopropyl)benzamide]"
0.192,0.299,–,–,"O=C(NCc1cccs1)c1ccc(CN(Cc2ccccc2)S(=O)(=O)c2ccc(Cl)cc2)cc1 [Example 7, 4-({benzyl[(4-chlorophenyl)sulfonyl]amino}methyl)-N-(2-thienylmethyl)benzamide]"
0.2,0.168,–,–,"O=C(NCC1CC1)c1ccc(CN(Cc2ccccn2)S(=O)(=O)c2ccc(Cl)cc2)cc1 [Example 5, 4-{[[(4-chlorophenyl)sulfonyl](pyridin-2-ylmethyl)amino]methyl}-N-(cyclopropylmethyl)benzamide]"
0.865,1.65,–,–,"O=C(NS(=O)(=O)c1cccc(Cl)c1)c1ccc(CN(Cc2ccccc2)S(=O)(=O)c2ccc(Cl)cc2)cc1 [Example 12, N-[(3-chlorophenyl)sulfonyl]-4-{[benzyl[(4-chlorophenyl)sulfonyl]amino]methyl}benzamide]"
0.013,0.01,268,33,N#Cc1ccc(S(=O)(=O)N(Cc2ccc(C(=O)NC3(c4ccccc4)CC3)cc2)Cc2ccccn2)cc1 [Example 44]
0.369,0.64,–,–,"O=C(NCc1cccc(Cl)c1)c1ccc(CN(Cc2ccccc2)S(=O)(=O)c2ccc(Cl)cc2)nc1 [Example 8, 6-({benzyl[(4-chlorophenyl)sulfonyl]amino}methyl)-N-(3-chlorobenzyl)nicotinamide]"
–,0.197,530,–,CCOc1ccc(S(=O)(=O)N(Cc2ccccc2)Cc2ccc(C(=O)NCc3ccccc3)cc2)cc1 [Example 33]
–,0.78,–,1680,"CCOc1ccc(S(=O)(=O)N(Cc2ccccc2)Cc2ccc(C(=O)NCC3CC3)cc2)cc1 [Example 18, 4-{[Benzyl-(4-ethoxy-benzenesulfonyl)-amino]-methyl}-N-cyclopropylmethylbenzamide]"
0.025,0.015,90,53,"O=C(NC1(c2ccccc2)CC1)c1ccc(CN(Cc2ccccn2)S(=O)(=O)c2ccc(Cl)cc2)cc1 [Example 40, 4-{[(4-Chloro-benzenesulfonyl)-pyridin-2-ylmethyl-amino]-methyl}-N-(1-phenyl-cyclopropyl)-benzamide]"

# Source: US20110028509A1, “Sulfonamides” (MERCK SERONO SA, priority 2008, published 2011)
